Laboratory results published in PMC2745333 (Molecular Microbiology, 2009).

Target: PspF1−275 (Escherichia coli, UniProt P37344)
Experiment: analytical gel filtration, ADP-dependent dimer-to-hexamer shift
Type: binding
Conditions: 0.5 mM ADP, 10 μM protein, pH 8.0, 15 mM MgCl2, room temperature

PspF1−275, sequence (P37344 1-275): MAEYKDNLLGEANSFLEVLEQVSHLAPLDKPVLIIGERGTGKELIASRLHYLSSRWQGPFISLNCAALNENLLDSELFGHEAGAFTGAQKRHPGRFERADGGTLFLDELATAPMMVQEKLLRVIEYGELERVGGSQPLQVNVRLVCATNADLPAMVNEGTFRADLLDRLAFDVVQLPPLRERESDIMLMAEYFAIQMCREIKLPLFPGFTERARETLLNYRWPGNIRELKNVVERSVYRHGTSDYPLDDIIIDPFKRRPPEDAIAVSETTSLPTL

Compound: Nc1ncnc2c1ncn2[C@@H]1O[C@H](COP(=O)(O)OP(=O)(O)O)[C@@H](O)[C@H]1O [ADP]
- analytical gel filtration, ADP-dependent dimer-to-hexamer shift: dimers (Fig. 4A) in the absence of nucleotide and hexamers in the presence of ADP
